Where two headings read alike, the source gives them in different places.
Key:
[1] = test system: ATPase activity endogenous to L929 cell lysate; experiment: Detergent inhibition of ATPase endogenous to L929 cell lysate (ATP remaining by luciferase luminescence, 22° C.); assay type: biochemical; design: key to Relative ATPase Activity, slope det/slope lysate: slope with detergent / slope without; ≥1.0 = 100% activity, 0.5 = 50%
Description: Three separate detergents in each of four detergent classes were tested: anionic [SDS (Sodium dodecyl sulfate), Bioterge (an α olefin sulfate), and sodium deoxycholate], nonionic [TRITON X-100, BigCHAP (N,N-bis(3-D-Gluconamidopropyl)cholamide) and THESIT (polyethylene glycol 400 dodecyl ether, Fluka, #88315)], cationic [BDDABr (Benzyldimethyldodecylammonium bromide), CTAB (Cetyltrimethylammonium bromide), and DTAB (dodecyltrimethylammonium bromide)] and zwitterionic [CHAPS (3[(3-Cholamidopropyl)dimethylammonio]propanesulfonic acid), CHAPSO (3-([3-Cholamidopropyl]dimethylammonio)-2-hydroxy-1-propanesulfonate), and Sulfobetaine 3-10 ([…]-N,N-dimethyl-3-ammonio-1-propanesulfonate)]. Detergents were obtained from Sigma, Fluka and Aldrich.
L929 cells (ATCC CCL-1; 1.5×10^5 cells/ml) in F12/DMEM (Hyclone, SH30023) containing 10% horse serum (Hyclone, SH30074) were frozen and thawed for four cycles to create a cell lysate. Then 50 μl of stock detergent solutions [10%, 5.0%, 1.0%, and 0.5% (w/v)] were separately added to 450 μl cell lysate, creating a final detergent concentration in the cell lysate sample of 1.0%, 0.5%, 0.1%, and 0.05%, respectively (these percentage values are those used in Tables D and E herein below). Control samples contained either lysate only or 1.0 μM ATP in 15 mM HEPES buffer (pH 7.5). All samples were incubated at 22° C. (room temperature) for the duration of the experiment.
At various timepoints, 20 μl from each sample/detergent mixture was added to a 96-well luminometer plate in triplicate, and then 100 μl of a solution (“luciferase-luciferin” or “L/L reagent”) containing 25 mM HEPES buffer (pH 7.5), 40 μg luciferase enzyme LucPpe2m146 (Promega, E140), 100 μM luciferin (Promega), and 10 mM MgSO4 was added to each well. The L/L reagent was stored at 4° C. for the duration of the experiment and then allowed to reach ambient temperature just before assaying. After mixing the contents of the plate, light output was measured with a Dynex MLX microtiter plate luminometer (Chantilly, Va.), 0.5 second reads per well with the first measurement taken five minutes after the detergent solution was combined with the sample. The average relative light units and the timepoint at which it was measured (rlu; Table D) and percent of remaining luciferase activity at the timepoint (Table E) are reported; controls were run with each set of experimental conditions as indicated. The cationic and anionic detergents were assayed on one day with one set of controls. The zwitterionic and nonionic detergents were assayed on a separate day with a separate set of controls. The DTAB at 0.5% was assayed on both days (1 and 2).
The experiment was performed as detailed in Example 1. The average relative light unit values and the percent of ATP remaining values are listed below in Table F and G respectively.
The log of the percent of ATP remaining after original timepoint values from Table E and Table G were plotted on the y axis against time (in minutes) on the x axis. The slope of the line generated by these values in the presence of detergent was divided by the slope of the line generated by the values in the absence of detergent (lysate control) resulting in the Relative ATPase Activity values listed below in Table H.
A relative activity value of 1.0 or greater indicates 100% cellular ATPase activity at the concentration of detergent tested. A relative activity value of 0.5 indicates a two-fold (or 50%) decrease in the level of cellular ATPase activity at the concentration of detergent tested when compared to the ATPase activity level in the absence of the detergent. A relative activity value of 0.2 indicates a five-fold (or 80%) decrease in the level of cellular ATPase activity at the concentration of detergent tested when compared to the ATPase activity level in the absence of the detergent.

[2] = test system: LucPpe2m146; experiment: Duration of luminescence (signal stability) and effects of media and sera, DTAB, ± pyrophosphate; assay type: biochemical, Photuris pennsylvanica; settings: 10 μM sodium pyrophosphate
Description: In some embodiments, the compositions of the invention were added to intact cells to lyse them, and then ATP detected. In other embodiments, conditioned culture media were themselves assayed for ATP. However, the various components of media, such as buffers, sugars, amino acids, pH indicators, salts, etc., as well as the various factors found in serum (equine, bovine, etc.) may inhibit luciferase activity.
The luciferase-luciferin reaction was initiated by combining 100 μl of the reagent composition composition with 100 μl cell media with serum, varying final concentrations of DTAB (as indicated below in Table Q) and 1.0 μM ATP was added to each reaction plus or minus 10 μM sodium pyrophosphate in wells of a 96-well microtiter luminometer plate; each experimental condition was prepared in triplicate. At various times after initiating the reaction, rlu values were recorded using an Orion microplate luminometer (Berthold Detection Systems; Pforzheim, Germany).

[3] = test system: LucPpe2m90; assay type: biochemical, Photuris pennsylvanica; settings: for Half life: buffer; for Average rlu: 37° C.
Description: The stability of a reagent composition composition comprising LucPpe2 luciferase was compared to a reagent composition comprising LucPpe2m90 and a reagent composition comprising LucPpe2m146, in the presence and absence of 0.1% DTAB. These mutant luciferases are thermostable; they are described in detail in PCT application PCT/US99/30925, filed Dec. 22, 1999.
Each enzyme was diluted to 0.05 mg/ml to a final volume of 1.0 ml in either 25 mM HEPES, pH 8.0 or 20 mM citrate, pH 6.0; both with 100 mM NaCl, 1 mM EDTA, 0.1% gelatin and 5% glycerol. In half of the samples, 0.1% DTAB was added. The enzyme solutions (“reagent compositions”) were incubated at 37° C.
At various timepoints, 10 μl of enzyme solution was transferred to a 96-well luminometer plate in triplicate. Then, in triplicate, 100 μl room temperature luciferase assay reagent (1 mM luciferin, 0.2 mM ATP, 10 MM MgSO4 in 50 mM HEPES, pH 8.0) was added to each 10 μl enzyme solution aliquot, mixed and immediately read in a Dynex MLX microtiter plate luminometer. The ATP in the luciferase assay reagent is at a saturating concentration. The average rlu values are reported, as are the half lives of the reagent composition activity as measured by luminescence (Table P). Half-life was calculated using the formula log (0.5)/slope of the data plotted as time (x axis) versus log value of rlu. The time zero is actually about 2-3 minutes after the mixing of enzyme and substrate; this could account for the lower numbers in the presence of DTAB at time 0 than in the absence of DTAB.

Molecule: C[C@H](CCC(=O)NCCC[N+](C)(C)CCCS(=O)(=O)[O-])[C@H]1CC[C@H]2[C@@H]3[C@H](O)C[C@@H]4C[C@H](O)CC[C@]4(C)[C@H]3C[C@H](O)[C@]12C [CHAPS, 3[(3-Cholamidopropyl)dimethylammonio]propanesulfonic acid]
- Average Relative Light Unit Values ([1]; 0.05% detergent, 5 min): 6356.62 rlu
- Percent ATP Remaining ([1]; 0.05% detergent, 5 min): 100%
- Average Relative Light Unit Values ([1]; 0.05% detergent, 75 min): 2305.56 rlu
- Percent ATP Remaining ([1]; 0.05% detergent, 75 min): 36.3%
- Average Relative Light Unit Values ([1]; 0.05% detergent, 169 min): 1143.02 rlu
- Percent ATP Remaining ([1]; 0.05% detergent, 169 min): 18.0%
- Average Relative Light Unit Values ([1]; 0.05% detergent, 222 min): 500.80 rlu
- Percent ATP Remaining ([1]; 0.05% detergent, 222 min): 7.9%
- Average Relative Light Unit Values ([1]; 0.05% detergent, 260 min): 240.81 rlu
- Percent ATP Remaining ([1]; 0.05% detergent, 260 min): 3.8%
- Relative ATPase Activity, slope det/slope lysate ([1]; 0.05 percent detergent): 1.061
- Slope (log percent ATP remaining vs time in minutes) ([1]; 0.05 percent detergent): −0.0056
- Average Relative Light Unit Values ([1]; 0.1% detergent, 5 min): 6515.77 rlu
- Percent ATP Remaining ([1]; 0.1% detergent, 5 min): 100%
- Average Relative Light Unit Values ([1]; 0.1% detergent, 75 min): 2583.65 rlu
- Percent ATP Remaining ([1]; 0.1% detergent, 75 min): 39.7%
- Average Relative Light Unit Values ([1]; 0.1% detergent, 169 min): 1236.53 rlu
- Percent ATP Remaining ([1]; 0.1% detergent, 169 min): 19.0%
- Average Relative Light Unit Values ([1]; 0.1% detergent, 222 min): 448.96 rlu
- Percent ATP Remaining ([1]; 0.1% detergent, 222 min): 8.6%
- Average Relative Light Unit Values ([1]; 0.1% detergent, 260 min): 284.18 rlu
- Percent ATP Remaining ([1]; 0.1% detergent, 260 min): 4.4%
- Relative ATPase Activity, slope det/slope lysate ([1]; 0.10 percent detergent): 1.023
- Slope (log percent ATP remaining vs time in minutes) ([1]; 0.10 percent detergent): −0.0054
- Average Relative Light Unit Values ([1]; 0.5% detergent, 5 min): 7368.91 rlu
- Percent ATP Remaining ([1]; 0.5% detergent, 5 min): 100%
- Average Relative Light Unit Values ([1]; 0.5% detergent, 75 min): 4048.24 rlu
- Percent ATP Remaining ([1]; 0.5% detergent, 75 min): 54.9%
- Average Relative Light Unit Values ([1]; 0.5% detergent, 169 min): 2548.39 rlu
- Percent ATP Remaining ([1]; 0.5% detergent, 169 min): 34.6%
- Average Relative Light Unit Values ([1]; 0.5% detergent, 222 min): 1438.57 rlu
- Percent ATP Remaining ([1]; 0.5% detergent, 222 min): 19.5%
- Average Relative Light Unit Values ([1]; 0.5% detergent, 260 min): 909.15 rlu
- Percent ATP Remaining ([1]; 0.5% detergent, 260 min): 12.3%
- Relative ATPase Activity, slope det/slope lysate ([1]; 0.50 percent detergent): 0.688
- Slope (log percent ATP remaining vs time in minutes) ([1]; 0.50 percent detergent): −0.0036
- Average Relative Light Unit Values ([1]; 1.0% detergent, 5 min): 7241.33 rlu
- Percent ATP Remaining ([1]; 1.0% detergent, 5 min): 100%
- Average Relative Light Unit Values ([1]; 1.0% detergent, 75 min): 3816.06 rlu
- Percent ATP Remaining ([1]; 1.0% detergent, 75 min): 52.7%
- Average Relative Light Unit Values ([1]; 1.0% detergent, 169 min): 2348.28 rlu
- Percent ATP Remaining ([1]; 1.0% detergent, 169 min): 32.4%
- Average Relative Light Unit Values ([1]; 1.0% detergent, 222 min): 1322.30 rlu
- Percent ATP Remaining ([1]; 1.0% detergent, 222 min): 18.3%
- Average Relative Light Unit Values ([1]; 1.0% detergent, 260 min): 809.22 rlu
- Percent ATP Remaining ([1]; 1.0% detergent, 260 min): 11.2%
- Relative ATPase Activity, slope det/slope lysate ([1]; 1.00 percent detergent): 0.715
- Slope (log percent ATP remaining vs time in minutes) ([1]; 1.00 percent detergent): −0.0038

Molecule: O=P([O-])([O-])OP(=O)([O-])[O-].[Na+].[Na+].[Na+].[Na+] [Ppi, sodium pyrophosphate]
- decrease of luminescence [2]: ten-fold

B1: LucPpe2m90: mutant luciferase derived from LucPpe2, SEQ ID NO:2 (protein)
chain: MADKNILYGPEPFYPLEDGTAGEQMFDALSRYADIPGCIALTNAHTKENVLYEEFLKLSCRLAESFKKYGLKQNDTIAVCSENGLQFFLPVIASLYLGIIVAPVNDKYIERELIHSLGIVKPRIVFCSKNTFQKVLNVKSKLKSIETIIILDLNEDLGGYQCLNNFISQNSDSNLDVKKFKPYSFNRDDQVALIMFSSGTTGLPKGVMLTHKNIVARFSLAKDPTFGNAINPTTAILTVIPFHHGFGMMTTLGYFTCGFRVVLMHTFEEKLFLQSLQDYKVESTLLVPTLMAFLAKSALVEKYDLSHLKEIASGGAPLSKEIGEMVKKRFKLNFVRQGYGLTETTSAVLITPKGDAKPGSTGKIVPFHAVKVVDPTTGKILGPNEPGELYFKGPMIMKGYYNNEEATKAIIDNDGWLRSGDIAYYDNDGHFYIVDRLKSLIKYKGYQVAPAEIEGILLQHPYIVDAGVTGIPDEAAGELPAAGVVVQTGKYLNEQIVQDYVASQVSTAKWLRGGVKFLDEIPKGSTGKIDRKVLRQMFEKHTNG
modifications: Mutant of LucPpe2 luciferase
- Half life ([3]; pH 6): 8.508 h
- Half life ([3]; pH 8): 8.125 h
- Average rlu ([3]; pH 6.0 + 0.1% DTAB, 0 min): 16263.53 rlu
- Average rlu ([3]; pH 6.0 + 0.1% DTAB, 59 min): 15535.4 rlu
- Average rlu ([3]; pH 6.0 + 0.1% DTAB, 123 min): 13421.5 rlu
- Average rlu ([3]; pH 6.0 + 0.1% DTAB, 183 min): 14061.8 rlu
- Average rlu ([3]; pH 6.0 + 0.1% DTAB, 239 min): 11924.03 rlu
- Average rlu ([3]; pH 6.0, 0 min): 20031.03 rlu
- Average rlu ([3]; pH 6.0, 59 min): 18453 rlu
- Average rlu ([3]; pH 6.0, 123 min): 15966.03 rlu
- Average rlu ([3]; pH 6.0, 183 min): 15546.4 rlu
- Average rlu ([3]; pH 6.0, 239 min): 14519.63 rlu
- Average rlu ([3]; pH 8.0 + 0.1% DTAB, 0 min): 22401.4 rlu
- Average rlu ([3]; pH 8.0 + 0.1% DTAB, 59 min): 15332.67 rlu
- Average rlu ([3]; pH 8.0 + 0.1% DTAB, 123 min): 12383.75 rlu
- Average rlu ([3]; pH 8.0 + 0.1% DTAB, 183 min): 11271.25 rlu
- Average rlu ([3]; pH 8.0 + 0.1% DTAB, 239 min): 9551.65 rlu
- Average rlu ([3]; pH 8.0, 0 min): 15795.17 rlu
- Average rlu ([3]; pH 8.0, 59 min): 15510.77 rlu
- Average rlu ([3]; pH 8.0, 123 min): 13735.67 rlu
- Average rlu ([3]; pH 8.0, 183 min): 13271.05 rlu
- Average rlu ([3]; pH 8.0, 239 min): 11115.13 rlu
